Assay results published in patent US10077261B2, “Imidazolin-5-one derivative useful as FASN inhibitors for the treatment of cancer” (Janssen Pharmaceutica NV, priority 2012, dated 2018).

Key:
[1] = biological target: T1, hFASN enzyme (full length) (Homo sapiens, UniProt P49327); assay: Fatty Acid Synthase (FASN) inhibition scintillation proximity assay; assay type: biochemical; conditions: for inhibition at 10 µM: read-out: Human FASN % inhibition @ 10 μM, 10 μM test compound; for IC50: read-out: Human FASN pIC50 (converted)
T1 construct: 10 μL hFASN enzyme (full length, 300 ng, purified in house); made in house
Method in brief: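 Scintillation proximity format: in-house full-length enzyme, 300 ng per well, pH 7.5 phosphate/DTT buffer, ³H-acetyl-CoA and malonyl-CoA. Emission counted on LEADseeker at 610 nm at least 24 h after stopping.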

[2] = test system: LNCaP-Vancouver prostate cells; assay: In vitro LNCaP Vancouver prostate cell proliferation assay in lipid reduced medium; assay type: cell-based; conditions: read-out: pIC50 LNCaP_Vancouver prostate cell (converted)
[3] = test system: PC-3M-Luc-C6 prostate cells; assay: In vitro PC-3M-Luc-C6 prostate cell proliferation assay in lipid reduced medium; assay type: cell-based; conditions: 96 h, read-out: pIC50 PC-3M-Luc-C6 prostate cell (converted)
[4] = biological target: Fatty Acid Synthase Keto-reductase Domain (FASN KR) (Homo sapiens, UniProt P49327); assay: Fatty Acid Synthase keto-reductase domain (FASN KR) inhibition, NADPH oxidation at 340 nm
Protocol: After 20 minutes incubation at room temperature the plate was measured again (T2).
The decrease in absorbance was calculated as (Absorbance before incubation T1)−(Absorbance following incubation T2).
A plot of Controlmin versus test compound concentration was fitted to a 4-parameter logistic curve using a non-linear least squares regression method.

A2780 ovarian cells [5] = assay: A2780 ovarian cell proliferation assay in lipid reduced medium, with palmitate (MTT); assay type: cell-based; conditions: Homo sapiens, A2780, 96 h; read-out: pIC50 A2780 Ovarian Cell, With Palmitate (converted)
Method in brief: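 In this palmitate-supplemented format, compound dilutions (30 μM down to 0.01 μM) are added to cells in lipid-reduced serum with 25 μM palmitate, 0.2% fatty-acid-free BSA and 0.25% ethanol. After four days (96 h) MTT absorbance at 544 nm is recorded and fitted by minimum sum of squares.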

A2780 ovarian cells [6] = assay: A2780 ovarian cell proliferation assay in lipid reduced medium, without palmitate (MTT); assay type: cell-based; conditions: Homo sapiens, A2780, 96 h; read-out: pIC50 A2780 Ovarian Cell, Without Palmitate (converted)

Fatty Acid Synthase Keto-reductase Domain (FASN KR), sequence (P49327 whole entry, the tested form may be a part): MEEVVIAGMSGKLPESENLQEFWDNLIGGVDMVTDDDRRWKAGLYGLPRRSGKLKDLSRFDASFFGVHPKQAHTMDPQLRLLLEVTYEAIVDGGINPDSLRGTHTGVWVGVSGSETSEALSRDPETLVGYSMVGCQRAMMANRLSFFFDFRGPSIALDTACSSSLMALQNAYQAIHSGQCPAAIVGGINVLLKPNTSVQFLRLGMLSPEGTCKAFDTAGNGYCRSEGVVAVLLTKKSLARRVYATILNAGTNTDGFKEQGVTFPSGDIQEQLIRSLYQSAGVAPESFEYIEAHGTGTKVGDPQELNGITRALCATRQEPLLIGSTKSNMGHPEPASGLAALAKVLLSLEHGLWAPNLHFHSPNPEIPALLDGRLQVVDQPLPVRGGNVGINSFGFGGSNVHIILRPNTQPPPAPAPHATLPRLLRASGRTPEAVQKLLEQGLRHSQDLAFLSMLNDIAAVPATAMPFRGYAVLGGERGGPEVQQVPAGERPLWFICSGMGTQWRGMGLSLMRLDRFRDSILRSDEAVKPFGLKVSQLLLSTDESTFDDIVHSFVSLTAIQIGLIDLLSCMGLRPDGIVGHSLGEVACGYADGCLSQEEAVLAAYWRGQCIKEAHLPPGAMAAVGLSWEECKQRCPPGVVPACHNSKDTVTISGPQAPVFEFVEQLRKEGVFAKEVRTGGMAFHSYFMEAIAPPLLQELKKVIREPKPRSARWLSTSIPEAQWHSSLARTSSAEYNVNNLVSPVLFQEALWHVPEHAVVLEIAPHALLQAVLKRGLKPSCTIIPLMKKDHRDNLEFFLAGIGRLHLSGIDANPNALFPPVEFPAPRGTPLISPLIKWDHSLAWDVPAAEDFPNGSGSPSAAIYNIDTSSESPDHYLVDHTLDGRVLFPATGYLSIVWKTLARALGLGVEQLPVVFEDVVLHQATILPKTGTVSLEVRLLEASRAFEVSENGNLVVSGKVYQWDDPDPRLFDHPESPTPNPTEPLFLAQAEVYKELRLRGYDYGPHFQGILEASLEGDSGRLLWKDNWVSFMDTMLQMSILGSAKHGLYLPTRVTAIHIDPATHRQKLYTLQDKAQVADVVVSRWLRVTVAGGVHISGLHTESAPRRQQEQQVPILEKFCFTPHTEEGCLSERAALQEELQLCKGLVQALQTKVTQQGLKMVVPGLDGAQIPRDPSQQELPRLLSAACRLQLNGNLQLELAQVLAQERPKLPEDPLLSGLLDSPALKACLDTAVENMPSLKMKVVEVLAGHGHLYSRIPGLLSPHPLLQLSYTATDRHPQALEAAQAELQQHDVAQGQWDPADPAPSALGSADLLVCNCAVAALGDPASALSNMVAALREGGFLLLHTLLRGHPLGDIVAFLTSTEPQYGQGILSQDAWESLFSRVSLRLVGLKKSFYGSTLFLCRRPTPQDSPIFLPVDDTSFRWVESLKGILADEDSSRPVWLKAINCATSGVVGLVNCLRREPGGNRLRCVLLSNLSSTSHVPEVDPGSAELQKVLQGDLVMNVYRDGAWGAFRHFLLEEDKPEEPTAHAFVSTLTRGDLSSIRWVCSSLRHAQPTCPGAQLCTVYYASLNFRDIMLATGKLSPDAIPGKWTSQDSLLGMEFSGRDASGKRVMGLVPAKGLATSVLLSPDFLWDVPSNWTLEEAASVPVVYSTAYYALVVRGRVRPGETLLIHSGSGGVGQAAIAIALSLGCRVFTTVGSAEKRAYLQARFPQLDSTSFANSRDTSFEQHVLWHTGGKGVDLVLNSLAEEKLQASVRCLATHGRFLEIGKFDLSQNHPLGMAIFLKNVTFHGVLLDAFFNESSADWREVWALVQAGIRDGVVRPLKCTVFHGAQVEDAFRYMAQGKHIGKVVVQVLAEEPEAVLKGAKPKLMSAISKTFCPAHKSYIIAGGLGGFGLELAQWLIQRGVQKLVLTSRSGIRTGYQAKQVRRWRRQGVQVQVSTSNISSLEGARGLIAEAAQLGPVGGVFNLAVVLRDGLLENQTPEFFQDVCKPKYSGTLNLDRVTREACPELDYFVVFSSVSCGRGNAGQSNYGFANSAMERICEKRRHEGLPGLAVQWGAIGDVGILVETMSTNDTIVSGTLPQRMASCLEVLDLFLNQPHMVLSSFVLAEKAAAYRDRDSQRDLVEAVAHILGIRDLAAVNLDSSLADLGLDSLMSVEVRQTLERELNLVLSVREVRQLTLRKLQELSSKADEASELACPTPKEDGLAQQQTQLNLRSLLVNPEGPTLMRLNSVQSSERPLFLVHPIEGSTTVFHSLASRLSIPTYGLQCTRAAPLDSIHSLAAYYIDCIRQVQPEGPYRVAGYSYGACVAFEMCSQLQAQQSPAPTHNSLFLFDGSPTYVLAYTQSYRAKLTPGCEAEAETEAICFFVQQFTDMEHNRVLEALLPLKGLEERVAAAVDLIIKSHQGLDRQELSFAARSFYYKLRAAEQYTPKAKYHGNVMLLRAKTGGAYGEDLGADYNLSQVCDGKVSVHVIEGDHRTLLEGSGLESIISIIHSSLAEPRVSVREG
T1 sequence (P49327 whole entry): as the sequence (P49327 whole entry, the tested form may be a part) above

| Structure (SMILES) | inhibition at 10 µM [1] | IC50 [1] | IC50 [2] | IC50 [3] | IC50 [4] | IC50 (A2780 ovarian cells [5]) | IC50 (A2780 ovarian cells [6]) |
| --- | --- | --- | --- | --- | --- | --- | --- |
| O=C([C@H]1CCCO1)N1CC(CN2C(=O)C3(CCOC3)N=C2c2ccc(-c3ccc4occc4c3)cc2)C1 (stereo partly drawn) [compound 720, 2-[4-(1-Benzofuran-5-yl)phenyl]-3-({1-[(2R)-tetrahydro-furan-2-ylcarbonyl]azetidin-3-yl}methyl)-7-oxa-1,3-diazaspiro[4.4]non-1-en-4-one] | 87% | 776 nM | 9120 nM | 4680 nM | 6460 nM | – | – |
| CC(O)C(=O)N1CC(CN2C(=O)C3(CCOCC3)N=C2c2ccc(-c3ccc4cccnc4c3)cc2)C1 (stereo not drawn) [compound 699, 3-{[1-(2-Hydroxypropanoyl)azetidin-3-yl]methyl}-2-(4-quinolin-7-ylphenyl)-8-oxa-1,3-diazaspiro[4.5]dec-1-en-4-one] | 89% | ~724 nM | > 10000 nM | 5130 nM | 5370 nM | – | – |
| COC(=O)N1CC2(C1)N=C(c1ccc(-c3ccc4occc4c3)cc1)N(C[C@@H]1CCN(C(=O)C3CC3)C1)C2=O [compound 733, Methyl 6-[4-(1-benzofuran-5-yl)phenyl]-7-{[(3R)-1-(cycloprropylcarbonyl)pyrrolidin-3-yl]methyl}-8-oxo-2,5,7-triazaspiro[3.4]oct-5-ene-2-carboxylate] | 96% | 200 nM | 3310 nM | 1290 nM | 537 nM | – | – |
| O=C(C1CC1)N1CC(CN2C(=O)C3(CC3)N=C2c2ccc(-c3ccc4cccnc4n3)cc2)C1 [compound 511, 6-{[1-(Cyclopropylcarbonyl)azetidin-3-yl]methyl}-5-[4-(1,8-naphthyridin-2-yl)phenyl]-4,6-diazaspiro[2.4]hept-4-en-7-one] | 94% | 355 nM | 4680 nM | ~891 nM | 3160 nM | – | – |
| O=C(C1CC1)N1CC[C@@H](CN2C(=O)C3(CC3)N=C2c2ccc(-c3ccc4cncnc4c3)cc2)C1 [compound 312, (R)-6-((1-(cyclopropanecarbonyl)pyrrolidin-3-yl)methyl)-5-(4-(quinazolin-7-yl)phenyl)-4,6-diazaspiro[2.4]hept-4-en-7-one] | 101% | 75.9 nM | 123 nM | ~52.5 nM | 75.9 nM | – | – |
| Cn1cc(-c2ccc(-c3ccc(C4=NC5(CC5)C(=O)N4CC4CN(C(=O)C5CC5)C4)cc3)cn2)cn1 [compound 517, 6-{[1-(Cyclopropylcarbonyl)azetidin-3-yl]methyl}-5-{4-[6-(1-methyl-1H-pyrazol-4-yl)pyridin-3-yl]phenyl}-4,6-diazaspiro[2.4]hept-4-en-7-one] | 88% | 646 nM | ~5250 nM | 1260 nM | 1510 nM | – | – |
| COC(=O)N1CC2(C1)N=C(c1ccc(-c3ccc4c(cnn4C)c3)cc1)N(C[C@@H]1CCN(C(=O)[C@H]3CCCO3)C1)C2=O [compound 739, Methyl 6-[4-(1-methyl-1H-indazol-5-ylyl)phenyl]-8-oxo-7-({(3R)-1-[(2R)-tetrahydro-furan-2-ylcarbonyl]pyrrolidin-3-yl}methyl)-2,5,7-triazaspiro[3.4]oct-5-ene-2-carboxylate] | 92% | 234 nM | 3800 nM | ~871 nM | 513 nM | – | – |
| Cn1cc(-c2ccc(-c3ccc(C4=NC5(CCOC5)C(=O)N4C[C@@H]4CCN(C(=O)C5CC5)C4)cc3)cc2)cn1 (stereo partly drawn) [compound 676, 3-{[(3R)-1-(Cyclopropylcarbonyl)pyrrolidin-3-yl]methyl}-2-[4′-(1-methyl-1H-pyrazol-4-yl)biphenyl-4-yl]-7-oxa-1,3-diazaspiro[4.4]non-1-en-4-one] | 98% | 269 nM | 1780 nM | 501 nM | 603 nM | – | – |
| O=C(C1CC1)N1CC(CN2C(=O)C3(CC3)N=C2c2ccc(-c3ccc4cnc(F)cc4c3)cc2)C1 [compound 502, 6-{[1-(Cyclopropylcarbonyl)azetidin-3-yl]methyl}-5-[4-(3-fluoroisoquinolin-6-yl)phenyl]-4,6-diazaspiro[2.4]hept-4-en-7-one] | 94% | 355 nM | 4170 nM | 1170 nM | 2140 nM | – | – |
| COC(=O)N1CC2(C1)N=C(c1ccc(-c3ccc4cccnc4c3)cc1)N(C[C@@H]1CCN(C(=O)[C@H]3CCCO3)C1)C2=O [compound 730, Methyl 8-oxo-6-(4-quinolin-7-ylphenyl)-7-({(3R)-1-[(2R)-tetrahydro-furan-2-ylcarbonyl]pyrrolidin-3-yl}methyl)-2,5,7-triazaspiro[3.4]oct-5-ene-2-carboxylate] | 102% | 100 nM | ~407 nM | 97.7 nM | 355 nM | – | – |
| COC(=O)N1CC2(C1)N=C(c1ccc(-c3ccc4cccnc4c3)cc1)N(C[C@@H]1CCN(C(=O)C3CC3)C1)C2=O [compound 728, Methyl 7-{[(3R)-1-(cyclopropylcarbonyl)pyrrolidin-3-yl]methyl}-8-oxo-6-(4-quinolin-7-ylphenyl)-2,5,7-triazaspiro[3.4]ect-5-ene-2-carboxylate] | 100% | 64.6 nM | 525 nM | 151 nM | 316 nM | – | – |
| Cc1cc(-c2ccc3c(cnn3C)c2)ccc1C1=NC2(CC2)C(=O)N1CC1CN(C(=O)CC2CC2)C1 [compound 499, 6-{[1-(Cyclopropylacetyl)azetidin-3-yl]methyl}-5-[2-methyl-4-(1-methyl-1H-indazol-5-yl)phenyl]-4,6-diazaspiro[2.4]hept-4-en-7-one] | 96% | 245 nM | 4270 nM | 457 nM | 479 nM | – | – |
| Cc1cc(-c2ccc3cc[nH]c3c2)ccc1C1=NC2(CCCC2)C(=O)N1C[C@@H]1CCN(C(=O)C2CC2)C1 [compound 873, (R)-2-(4-(1H-indol-6-yl)-2-methylphenyl)-3-((1-(cyclopropanecarbonyl)pyrrolidin-3-yl)methyl)-1,3-diazaspiro[4.4]non-1-en-4-one] | 109% | – | 263 nM | 34.7 nM | – | > 10000 nM | 63.1 nM |
| Cc1cc(-c2ccc3cc(F)ccc3c2)ccc1C1=NC2(CC2)C(=O)N1CC1CN(C(=O)C2CCO2)C1 (stereo not drawn) [compound 223, 5-(4-(6-fluoronaphthalen-2-yl)-2-methylphenyl)-6-((1-(oxetan-2-carbonyl)azetidin-3-yl)methyl)-4,6-diazaspiro[2.4]hept-4-en-7-one] | 104% | 53.7 nM | 240 nM | 60.3 nM | – | 3310 nM | ~20 nM |
| Cc1cc(-c2ccc3c(cnn3C)c2)ccc1C1=NC2(CC2)C(=O)N1CC1CN(C(=O)C2(C)CC2)C1 [compound 207, 5-(2-methyl-4-(1-methyl-1H-indazol-5-yl)phenyl)-6-((1-(1-methylcyclopropanecarbonyl)azetidin-3-yl)methyl)-4,6-diazaspiro[2.4]hept-4-en-7-one] | 101% | – | 513 nM | ~67.6 nM | – | > 10000 nM | 60.3 nM |
| Cc1cc(-c2ccc3c(c2)ncn3C)ccc1C1=NC2(CC2)C(=O)N1CC1CN(C(=O)C2(O)CC2)C1 [compound 628, 6-({1-[(1-Hydroxycyclopropyl)carbonyl]azetidin-3-yl}methyl)-5-[2-methyl-4-(1-methyl-1H-benzimidazol-5-yl)phenyl]-4,6-diazaspiro[2.4]hept-4-en-7-one] | 100% | – | 724 nM | 162 nM | – | > 10000 nM | 66.1 nM |
| Nc1nccc2cc(-c3ccc(C4=NC5(CC5)C(=O)N4C[C@@H]4CCN(C(=O)C5CC5)C4)cc3)ccc12 [compound 469, 5-[4-(1-Aminoisoquinolin-6-yl)phenyl]-6-{[(3R)-1-(cyclopropylcarbonyl)pyrrolidin-3-yl]methyl}-4,6-diazaspiro[2.4]hept-4-en-7-one] | 97% | – | 288 nM | 58.9 nM | – | > 10000 nM | 74.1 nM |
| Cn1ncc2cc(-c3ccc(C4=NC5(CC5)C(=O)N4C[C@@H]4CCN(C(=O)C5CCO5)C4)cc3)ccc21 (stereo partly drawn) [compound 204, 5-(4-(1-methyl-1H-indazol-5-yl)phenyl)-6-(((3R)-1-(oxetane-2-carbonyl)pyrrolidin-3-yl)methyl)-4,6-diazaspiro[2.4]hept-4-en-7-one] | 103% | – | 407 nM | 51.3 nM | – | > 10000 nM | ~40.7 nM |
| Cc1cc(-c2cccc3c2cnn3C)ccc1C1=NC2(CC2)C(=O)N1CC1CN(C(=O)C2(C)CC2)C1 [compound 599, 6-({1-[(1-Methylcyclopropyl)carbonyl]azetidin-3-yl}methyl)-5-[2-methyl-4-(1-methyl-1H-indazol-4-yl)phenyl]-4,6-diazaspiro[2.4]hept-4-en-7-one] | 102% | – | 912 nM | 105 nM | – | 5500 nM | 145 nM |
